Patent US12252524B2, “GIP/GLP1 co-agonist compounds” (Eli Lilly and Company, priority 2018, dated 2025)
Numbered stars: 1 amine (or outer) side, 2 acyl side, 3 side chain; on linkers, the order of the positions; unused ones are H or OH. Square brackets hold non-standard residues; d marks the D form. Side chains are listed from the residue outwards. Peptide text beside a SMILES is read from it. * marks the point of attachment. C20 diacid = O=C(O)CCCCCCCCCCCCCCCCCCC(=O)*; C18 diacid = O=C(O)CCCCCCCCCCCCCCCCC(=O)*; αMePhe(2-F) = C[C@](N)(Cc1ccccc1F)C(=O)O; γGlu = O=C(O)[C@H](CCC(=O)[*:2])N[*:1]; αMeY = C[C@](N)(Cc1ccc(O)cc1)C(=O)O; 4Pal = N[C@@H](Cc1ccncc1)C(=O)O; αMeL = CC(C)C[C@](C)(N)C(=O)O; Orn = NCCC[C@H](N)C(=O)O; AEEA = NCCOCCOCC(=O)O; Aib = CC(C)(N)C(=O)O

Key:
human Gcg receptor = biological target: T1, human Gcg receptor (Homo sapiens, UniProt P47871); test: [125I]-Glucagon binding (SPA), human Gcg receptor; conditions: read-out: hGLcgR Ki, nM (SEM, n)
T1 construct: expressed in transfected cells; crude membranes
Method in brief: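 Cell pellets were lysed in hypotonic Tris buffer, pH 7.5, homogenized, and spun at low then high speed to give crude membranes. Ki was derived from the fitted IC50.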

human GIP receptor = biological target: T2, human GIP receptor (Homo sapiens, UniProt P48546); test: [125I]-GIP binding (SPA), human GIP receptor; conditions: read-out: hGIPR Ki, nM (SEM, n)
T2 construct: expressed in transfected cells; crude membranes
T2 sequence (P48546 22-466): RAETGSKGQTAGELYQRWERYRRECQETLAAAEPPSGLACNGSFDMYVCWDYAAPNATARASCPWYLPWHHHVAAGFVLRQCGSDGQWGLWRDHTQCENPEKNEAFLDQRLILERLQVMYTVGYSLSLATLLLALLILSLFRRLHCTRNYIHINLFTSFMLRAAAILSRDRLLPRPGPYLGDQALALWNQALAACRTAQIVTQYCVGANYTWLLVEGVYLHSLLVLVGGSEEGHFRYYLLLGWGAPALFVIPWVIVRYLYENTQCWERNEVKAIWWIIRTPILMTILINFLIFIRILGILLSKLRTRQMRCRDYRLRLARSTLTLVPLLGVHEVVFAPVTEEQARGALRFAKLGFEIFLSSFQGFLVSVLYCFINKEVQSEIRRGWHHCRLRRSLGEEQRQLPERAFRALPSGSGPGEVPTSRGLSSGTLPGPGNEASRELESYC

[1] = biological target: human GLP-1 receptor (GLP-1R) (Homo sapiens, UniProt P43220); test: cAMP pharmacological functional assay in presence of casein, hGLP-1R; assay type: cell-based; conditions: HEK293 cells expressing hGLP-1R, 0.1% Casein, geometric mean; read-out: hGLP1R cAMP Rel EC50 nM (SEM, n)
[2] = biological target: T3, gastric inhibitory peptide receptor (GIPR) (Homo sapiens, UniProt P48546); test: cAMP pharmacological functional assay in presence of casein, hGIPR; assay type: cell-based; conditions: HEK293 cells expressing hGIPR, 0.1% Casein, geometric mean; read-out: hGIPR cAMP Rel EC50 nM (SEM, n)
T3 sequence (P48546 22-466): T2 sequence (P48546 22-466)

human GLP-1R = human GLP-1R (Homo sapiens, UniProt P43220); test: [125I]-GLP-1 binding (SPA), human GLP-1 receptor; design: expressed in transfected cells; crude membranes; conditions: read-out: hGLP1R Ki, (nM) (SEM, n)
Method in brief: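 Assay buffer: HEPES 25 mM, pH 7.4, CaCl2 2.5 mM, MgCl2 1 mM, with EDTA-free protease inhibitors. Receptor came from crude cell membranes prepared by homogenization and centrifugation at 4° C. IC50s came from four-parameter fits (maximum, minimum, IC50, Hill slope) and were expressed as Ki geometric means with SEM.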

T1 sequence (P47871 26-477): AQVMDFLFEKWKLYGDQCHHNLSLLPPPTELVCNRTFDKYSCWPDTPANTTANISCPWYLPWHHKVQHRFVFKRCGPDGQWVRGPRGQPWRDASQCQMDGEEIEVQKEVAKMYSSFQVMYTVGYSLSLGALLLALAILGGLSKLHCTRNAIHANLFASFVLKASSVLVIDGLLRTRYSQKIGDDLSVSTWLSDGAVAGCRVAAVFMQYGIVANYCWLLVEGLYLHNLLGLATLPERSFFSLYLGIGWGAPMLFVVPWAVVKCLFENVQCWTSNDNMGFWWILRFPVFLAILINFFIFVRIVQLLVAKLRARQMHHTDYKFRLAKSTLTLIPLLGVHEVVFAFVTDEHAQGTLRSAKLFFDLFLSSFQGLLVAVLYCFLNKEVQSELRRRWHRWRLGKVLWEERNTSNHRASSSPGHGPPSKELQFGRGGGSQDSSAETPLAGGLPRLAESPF
Sequence of human GLP-1R (P43220 24-463): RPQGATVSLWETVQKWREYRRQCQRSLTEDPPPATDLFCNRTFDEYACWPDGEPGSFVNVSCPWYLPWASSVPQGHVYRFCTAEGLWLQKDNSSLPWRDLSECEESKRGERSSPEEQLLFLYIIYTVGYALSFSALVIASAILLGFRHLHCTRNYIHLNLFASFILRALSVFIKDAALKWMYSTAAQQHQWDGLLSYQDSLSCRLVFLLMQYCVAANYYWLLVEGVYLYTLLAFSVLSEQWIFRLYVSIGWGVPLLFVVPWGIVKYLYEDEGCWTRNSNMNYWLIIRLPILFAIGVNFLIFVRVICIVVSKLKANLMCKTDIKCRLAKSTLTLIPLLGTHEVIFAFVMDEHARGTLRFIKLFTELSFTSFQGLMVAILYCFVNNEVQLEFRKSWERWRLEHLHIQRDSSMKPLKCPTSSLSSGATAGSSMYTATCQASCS
Sequence of human GLP-1 receptor (GLP-1R) (P43220 24-463): as above

SMILES | Ki (human Gcg receptor) [nM] | Ki (human GIP receptor) [nM] | EC50 [1] [nM] | EC50 [2] [nM] | Ki (human GLP-1R) [nM]
CC[C@H](C)[C@H](NC(=O)[C@H](CC(C)C)NC(=O)[C@H](Cc1ccc(O)cc1)NC(=O)[C@@H](CCC(=O)O)NC(=O)[C@@H](NC(=O)[C@H](Cc1ccccc1)NC(=O)[C@H](CCC(=O)O)NC(=O)C(C)(C)NC(=O)[C@H](CCC(N)=O)NC(=O)[C@H](C)NC(=O)[C@H](CCCCNC(=O)COCCOCCNC(=O)COCCOCCNC(=O)CC[C@H](NC(=O)CCCCCCCCCCCCCCCCCCC(=O)O)C(=O)O)NC(=O)[C@H](CCC(=O)O)NC(=O)[C@H](CC(=O)O)NC(=O)[C@H](CC(C)C)NC(=O)[C@](C)(CC(C)C)NC(=O)[C@@H](NC(=O)[C@H](CO)NC(=O)[C@H](C)NC(=O)[C@H](CC(=O)O)NC(=O)[C@H](CO)NC(=O)[C@@H](NC(=O)[C@](C)(Cc1ccccc1F)NC(=O)[C@@H](NC(=O)CNC(=O)[C@H](CCC(=O)O)NC(=O)C(C)(C)NC(=O)[C@@H](N)Cc1ccc(O)cc1)[C@@H](C)O)[C@@H](C)O)[C@@H](C)CC)[C@@H](C)CC)C(=O)N[C@@H](CCC(=O)O)C(=O)NCC(=O)NCC(=O)N1CCC[C@H]1C(=O)N[C@@H](CO)C(=O)N[C@@H](CO)C(=O)NCC(=O)N[C@@H](C)C(=O)N1CCC[C@H]1C(=O)N1CCC[C@H]1C(=O)N1CCC[C@H]1C(=O)N[C@@H](CO)C(N)=O [Example 192] (H-Y[Aib]EGT[αMePhe(2-F)]TSDASI[αMeL]LDEK([AEEA-AEEA-γGlu-C20 diacid])AQ[Aib]EFI[dE]YLIEGGPSSGAPPPS-NH2; N-terminus assumed) | > 1110 | 0.118 | 0.0289 | 0.0615 | 2.89
CC[C@H](C)[C@H](NC(=O)[C@H](CCCCNC(=O)COCCOCCNC(=O)COCCOCCNC(=O)CC[C@H](NC(=O)CCCCCCCCCCCCCCCCCCC(=O)O)C(=O)O)NC(=O)[C@H](CC(=O)O)NC(=O)[C@H](CC(C)C)NC(=O)[C@H](CC(C)C)NC(=O)[C@@H](NC(=O)[C@H](CO)NC(=O)[C@H](Cc1ccc(O)cc1)NC(=O)[C@H](CC(=O)O)NC(=O)[C@H](CO)NC(=O)[C@@H](NC(=O)[C@H](Cc1ccccc1)NC(=O)[C@@H](NC(=O)CNC(=O)[C@H](CCC(=O)O)NC(=O)C(C)(C)NC(=O)[C@@H](N)Cc1ccc(O)cc1)[C@@H](C)O)[C@@H](C)O)[C@@H](C)CC)C(=O)N[C@@H](C)C(=O)N[C@@H](CCC(N)=O)C(=O)NC(C)(C)C(=O)N[C@@H](C)C(=O)N[C@@H](Cc1ccccc1)C(=O)N[C@H](C(=O)N[C@@H](CCC(=O)O)C(=O)N[C@@H](Cc1ccc(O)cc1)C(=O)N[C@@H](CC(C)C)C(=O)N[C@H](C(=O)N[C@@H](CCC(=O)O)C(=O)NCC(=O)NCC(=O)N1CCC[C@H]1C(=O)N[C@@H](CO)C(=O)N[C@@H](CO)C(=O)NCC(=O)N[C@@H](C)C(=O)N1CCC[C@H]1C(=O)N1CCC[C@H]1C(=O)N1CCC[C@H]1C(=O)N[C@@H](CO)C(N)=O)[C@@H](C)CC)[C@@H](C)CC [Example 29] (H-Y[Aib]EGTFTSDYSILLDK([AEEA-AEEA-γGlu-C20 diacid])IAQ[Aib]AFIEYLIEGGPSSGAPPPS-NH2) | 132 | 0.377 | 0.999 | 0.32 | 8
CC[C@H](C)[C@H](NC(=O)[C@H](CCCCN)NC(=O)[C@H](CC(=O)O)NC(=O)[C@H](CC(C)C)NC(=O)[C@H](CC(C)C)NC(=O)[C@@H](NC(=O)[C@H](CO)NC(=O)[C@H](Cc1ccc(O)cc1)NC(=O)[C@H](CC(=O)O)NC(=O)[C@H](CO)NC(=O)[C@@H](NC(=O)[C@H](Cc1ccccc1)NC(=O)[C@@H](NC(=O)CNC(=O)[C@H](CCC(=O)O)NC(=O)C(C)(C)NC(=O)[C@@H](N)Cc1ccc(O)cc1)[C@@H](C)O)[C@@H](C)O)[C@@H](C)CC)C(=O)N[C@@H](C)C(=O)N[C@@H](CCC(N)=O)C(=O)NC(C)(C)C(=O)N[C@@H](C)C(=O)N[C@@H](Cc1ccccc1)C(=O)N[C@H](C(=O)N[C@@H](CCC(=O)O)C(=O)N[C@@H](Cc1ccc(O)cc1)C(=O)N[C@@H](CC(C)C)C(=O)N[C@H](C(=O)N[C@@H](CCC(=O)O)C(=O)NCC(=O)NCC(=O)N1CCC[C@H]1C(=O)N[C@@H](CO)C(=O)N[C@@H](CO)C(=O)NCC(=O)N[C@@H](C)C(=O)N1CCC[C@H]1C(=O)N[C@@H](CCCCNC(=O)COCCOCCNC(=O)COCCOCCNC(=O)CC[C@H](NC(=O)CCCCCCCCCCCCCCCCCCC(=O)O)C(=O)O)C(=O)N1CCC[C@H]1C(=O)N[C@@H](CO)C(N)=O)[C@@H](C)CC)[C@@H](C)CC [Example 46] (H-Y[Aib]EGTFTSDYSILLDKIAQ[Aib]AFIEYLIEGGPSSGAPK([AEEA-AEEA-γGlu-C20 diacid])PS-NH2) | 133 | 0.0852 | 0.687 | 0.172 | 13.4
CC[C@H](C)[C@H](NC(=O)[C@H](CCCCN)NC(=O)[C@H](CC(=O)O)NC(=O)[C@H](CC(C)C)NC(=O)[C@H](CC(C)C)NC(=O)[C@@H](NC(=O)[C@H](CO)NC(=O)[C@H](Cc1ccc(O)cc1)NC(=O)[C@H](CC(=O)O)NC(=O)[C@H](CO)NC(=O)[C@@H](NC(=O)[C@H](Cc1ccccc1)NC(=O)[C@@H](NC(=O)CNC(=O)[C@H](CCC(=O)O)NC(=O)C(C)(C)NC(=O)[C@@H](N)Cc1ccc(O)cc1)[C@@H](C)O)[C@@H](C)O)[C@@H](C)CC)C(=O)N[C@@H](C)C(=O)N[C@@H](CCC(N)=O)C(=O)NC(C)(C)C(=O)N[C@@H](C)C(=O)N[C@@H](Cc1ccccc1)C(=O)N[C@H](C(=O)N[C@@H](CCC(=O)O)C(=O)N[C@@H](Cc1ccc(O)cc1)C(=O)N[C@@H](CC(C)C)C(=O)N[C@H](C(=O)N[C@@H](CCC(=O)O)C(=O)NCC(=O)NCC(=O)N1CCC[C@H]1C(=O)N[C@@H](CCCCNC(=O)COCCOCCNC(=O)COCCOCCNC(=O)CC[C@H](NC(=O)CCCCCCCCCCCCCCCCCCC(=O)O)C(=O)O)C(=O)N[C@@H](CO)C(=O)NCC(=O)N[C@@H](C)C(=O)N1CCC[C@H]1C(=O)N1CCC[C@H]1C(=O)N1CCC[C@H]1C(=O)N[C@@H](CO)C(N)=O)[C@@H](C)CC)[C@@H](C)CC [Example 41] (H-Y[Aib]EGTFTSDYSILLDKIAQ[Aib]AFIEYLIEGGPK([AEEA-AEEA-γGlu-C20 diacid])SGAPPPS-NH2) | 165 | 0.0551 | 0.96 | 0.229 | 13.4
CC[C@H](C)[C@H](NC(=O)[C@H](CC(C)C)NC(=O)[C@](C)(Cc1ccc(O)cc1)NC(=O)[C@@H](CCC(=O)O)NC(=O)[C@@H](NC(=O)[C@H](Cc1ccccc1)NC(=O)[C@H](C)NC(=O)C(C)(C)NC(=O)[C@H](CCC(N)=O)NC(=O)[C@H](C)NC(=O)[C@H](CCCCNC(=O)COCCOCCNC(=O)COCCOCCNC(=O)CC[C@H](NC(=O)CCCCCCCCCCCCCCCCC(=O)O)C(=O)O)NC(=O)[C@H](CCCN)NC(=O)[C@H](CC(=O)O)NC(=O)[C@H](CC(C)C)NC(=O)[C@](C)(CC(C)C)NC(=O)[C@@H](NC(=O)[C@H](CO)NC(=O)[C@H](Cc1ccncc1)NC(=O)[C@H](CC(=O)O)NC(=O)[C@H](CO)NC(=O)[C@@H](NC(=O)[C@](C)(Cc1ccccc1F)NC(=O)[C@@H](NC(=O)CNC(=O)[C@H](CCC(=O)O)NC(=O)C(C)(C)NC(=O)[C@@H](N)Cc1ccc(O)cc1)[C@@H](C)O)[C@@H](C)O)[C@@H](C)CC)[C@@H](C)CC)C(=O)N[C@@H](CCC(=O)O)C(=O)NCC(=O)NCC(=O)N1CCC[C@H]1C(=O)N[C@@H](CO)C(=O)N[C@@H](CO)C(=O)NCC(=O)N[C@@H](C)C(=O)N1CCC[C@H]1C(=O)N1CCC[C@H]1C(=O)N1CCC[C@H]1C(=O)N[C@@H](CO)C(N)=O [Example 240] (H-Y[Aib]EGT[αMePhe(2-F)]TSD[4Pal]SI[αMeL]LD[Orn]K([AEEA-AEEA-γGlu-C18 diacid])AQ[Aib]AFI[dE][αMeY]LIEGGPSSGAPPPS-NH2) | 204 | 0.0284 | 0.0393 | 0.0223 | 0.552
